The source of these data is patent US9296741B2, “Bromodomain inhibitors” (priority 2012, dated 2016).

Molecules are shown by their SMILES. A value given as a limit tells only on which side of the number the result lay.

Data set [1] addresses human BRD4 first bromodomain (BDI_K57-E168) (Homo sapiens (Human), UniProt O60885). Briefly: TR-FRET bromodomain binding assay, BRD4 first bromodomain.
Data set [2] can be described thus: Human liver microsome stability assay. Conditions: both sexes, human, microsomes, pH 7.4. Type of data set: in vitro ADME.
In data set [3] the target is human BRD4 second bromodomain (BDII_E352-M457) (Homo sapiens (Human), UniProt O60885). As to the kind of experiment: TR-FRET bromodomain binding assay, BRD4 second bromodomain.
The nature of data set [4]: Mouse liver microsome stability assay. The conditions noted are these: male, CD1, mouse, microsomes, pH 7.4. In kind it is in vitro ADME.
A short description of data set [5]: Rat liver microsome stability assay. Type of data set: in vitro ADME. The conditions noted are these: rat liver microsomes (male Sprague-Dawley), 0.5 μM test compound, 0.25 mg/mL microsomal protein, pH 7.4, 37° C.; read-out: Stability in rat liver microsomes (t1/2 in minutes).
Data set [6] deals with breast cancer cell line MX-1. As to the kind of experiment: MX-1 cell line proliferation assay. Conditions: Homo sapiens, MX1, 72 h; MX-1 cells, 3-day proliferation, Cell Titer Glo; read-out: Cellular proliferation: EC50. Type of data set: cell-based, human.

Take `Cn1cc(-c2cc(S(C)(=O)=O)ccc2OCCN2CCOCC2)c2cc[nH]c2c1=O` [Example 227, 6-methyl-4-{5-(methylsulfonyl)-2-[2-(morpholin-4-yl)ethoxy]phenyl}-1,6-dihydro-7H-pyrrolo[2,3-c]pyridin-7-one]: the Ki in data set [1] was 73.9 nM; in data set [3], 211 nM. Moreover, the half-life at 0.5 μM is 50 min in data set [2], > 120 min in data set [4] and 70 min in data set [5]. The EC50 in data set [6] was determined as 658 nM.

Take `Cn1cc(-c2cc(CCO)ccc2OCc2ccccc2)c2cc[nH]c2c1=O` [Example 44, 4-[2-(benzyloxy)-5-(2-hydroxyethyl)phenyl]-6-methyl-1,6-dihydro-7H-pyrrolo[2,3-c]pyridin-7-one]: the Ki stood at 286 nM in data set [1] and 236 nM in data set [3]. The half-life at 0.5 μM was found to be 33.7 min in data set [2], 27 min in data set [4] and 6 min in data set [5]. Further, the EC50 in data set [6] turned out to be 828 nM.

In the case of `CCOC(=O)N1CCC(Oc2ccc(S(C)(=O)=O)cc2-c2cn(C)c(=O)c3[nH]ccc23)CC1` [Example 258, ethyl 4-[2-(6-methyl-7-oxo-6,7-dihydro-1H-pyrrolo[2,3-c]pyridin-4-yl)-4-(methylsulfonyl)phenoxy]piperidine-1-carboxylate], the Ki amounted to 5.9 nM in data set [1] and 12.4 nM in data set [3]. The half-life at 0.5 μM in data set [2] was 42 min; in data set [4], 69.8 min; in data set [5], 91 min. Besides, in data set [6], the EC50 was determined as 76.5 nM.

For the molecule `Cn1cc(-c2cc(S(C)(=O)=O)ccc2Oc2cccc(C#N)c2)c2cc[nH]c2c1=O` [Example 155, 3-[2-(6-methyl-7-oxo-6,7-dihydro-1H-pyrrolo[2,3-c]pyridin-4-yl)-4-(methylsulfonyl)phenoxy]benzonitrile], the Ki stood at 19.3 nM in data set [1] and 14.8 nM in data set [3]. Further, the half-life at 0.5 μM is > 120 min in data set [2], 25 min in data set [4] and > 120 min in data set [5]. The EC50 in data set [6] turned out to be 117 nM.

Take `CCNC(=O)c1cc2c(-c3cc(S(C)(=O)=O)ccc3Oc3ccc(F)cc3F)cn(C)c(=O)c2[nH]1` [Example 253, 4-[2-(2,4-difluorophenoxy)-5-(methylsulfonyl)phenyl]-N-ethyl-6-methyl-7-oxo-6,7-dihydro-1 H-pyrrolo[2,3-c]pyridine-2-carboxamide]: the results for the Ki in data set [1] and in data set [3] were 20.4 nM and 1.2 nM, respectively. Besides, the half-life at 0.5 μM is 72 min in data set [2], 90 min in data set [4] and 110 min in data set [5]. In addition, in data set [6], the EC50 was 145 nM.

`Cn1cc(-c2cc(C(=O)NCC(F)F)ccc2Oc2ccccc2)c2cc[nH]c2c1=O` [Example 16, N-(2,2-difluoroethyl)-3-(6-methyl-7-oxo-6,7-dihydro-1H-pyrrolo[2,3-c]pyridin-4-yl)-4-phenoxybenzamide]: the Ki in data set [1] turned out to be 4.3 nM; in data set [3], 5.3 nM. Moreover, the half-life at 0.5 μM is > 120 min in data set [2], 22 min in data set [4] and 4 min in data set [5]. Moreover, the EC50 in data set [6] was 94.6 nM.

For `Cn1cc(-c2cc(S(C)(=O)=O)ccc2Oc2ccc(C#N)cc2)c2cc[nH]c2c1=O` [Example 156, 4-[2-(6-methyl-7-oxo-6,7-dihydro-1H-pyrrolo[2,3-c]pyridin-4-yl)-4-(methylsulfonyl)phenoxy]benzonitrile], the Ki in data set [1] was found to be 11.3 nM; in data set [3] it was 20.9 nM. For the same molecule, the half-life at 0.5 μM in data set [2] is > 120 min; in data set [4], 33 min; in data set [5], > 120 min. The EC50 in data set [6] came to 114 nM.

For the molecule `CCS(=O)(=O)Nc1ccc(Oc2ccccc2)c(-c2cn(C)c(=O)c3[nH]ccc23)c1` [Example 21, N-[3-(6-methyl-7-oxo-6,7-dihydro-1H-pyrrolo[2,3-c]pyridin-4-yl)-4-phenoxyphenyl]ethanesulfonamide], the Ki stood at 0.39 nM in data set [1] and 0.25 nM in data set [3]. Besides, the figures for the half-life at 0.5 μM in data set [2], in data set [4] and in data set [5] were > 120 min, 22 min and 3 min, respectively. The EC50 in data set [6] is 13.9 nM.

In the case of `Cn1cc(-c2cc(-c3ccc(F)nc3)ccc2OCC2CC2)c2cc[nH]c2c1=O` [Example 348, 4-[2-(cyclopropylmethoxy)-5-(6-fluoropyridin-3-yl)phenyl]-6-methyl-1,6-dihydro-7H-pyrrolo[2,3-c]pyridin-7-one], the Ki in data set [1] is 157 nM; in data set [3], 422 nM. The results for the half-life at 0.5 μM in data set [2], in data set [4] and in data set [5] were > 120 min, 25 min and 2 min, respectively. For the same molecule, the EC50 in data set [6] stood at 1000 nM.

Take `Cn1cc(-c2cc(S(C)(=O)=O)ccc2OCC2C[C@@H]3CC[C@H]2C3)c2cc[nH]c2c1=O` (stereo partly drawn) [Example 230, 4-{2-[(1S,4R)-bicyclo[2.2.1]hept-2-ylmethoxy]-5-(methylsulfonyl)phenyl}-6-methyl-1,6-dihydro-7H-pyrrolo[2,3-c]pyridin-7-one]: the Ki in data set [1] was 2.6 nM; in data set [3], 1.5 nM. Besides, the half-life at 0.5 μM was found to be 6 min in data set [2], 7 min in data set [4] and 8 min in data set [5]. In addition, in data set [6], the EC50 stood at 23.6 nM.

`Cn1cc(-c2cc(S(C)(=O)=O)ccc2OC[C@H]2CCC(=O)N2)c2cc[nH]c2c1=O` [Example 226, 6-methyl-4-[5-(methylsulfonyl)-2-{[(2R)-5-oxopyrrolidin-2-yl]methoxy}phenyl]-1,6-dihydro-7H-pyrrolo[2,3-c]pyridin-7-one]: the Ki in data set [1] amounted to 141 nM; in data set [3] it was 438 nM. The results for the half-life at 0.5 μM in data set [2], in data set [4] and in data set [5] were 105 min, > 120 min and > 120 min, respectively. Further, in data set [6], the EC50 is > 3000 nM.

In the case of `Cn1cc(-c2ccc(OCC3CC3)c(-c3cn(C)c(=O)c4[nH]ccc34)c2)cn1` [Example 318, 4-[2-(cyclopropylmethoxy)-5-(1-methyl-1H-pyrazol-4-yl)phenyl]-6-methyl-1,6-dihydro-7H-pyrrolo[2,3-c]pyridin-7-one], the values for the Ki in data set [1] and in data set [3] were 346 nM and 625 nM, respectively. Also, the half-life at 0.5 μM in data set [2] stood at 35 min; in data set [4], 13 min; in data set [5] it was 24 min. Moreover, the EC50 in data set [6] was > 3000 nM.

Consider `CNS(=O)(=O)Nc1ccc(Oc2c(F)cc(F)cc2F)c(-c2cn(C)c(=O)c3[nH]ccc23)c1` [Example 98, N-methyl-N′-[3-(6-methyl-7-oxo-6,7-dihydro-1H-pyrrolo[2,3-c]pyridin-4-yl)-4-(2,4,6-trifluorophenoxy)phenyl]sulfuric diamide], for which the Ki in data set [1] was 6.5 nM; in data set [3], 2.7 nM. In addition, the half-life at 0.5 μM in data set [2] stood at 26 min; in data set [4], 10 min; in data set [5] it was 33 min. In data set [6], the EC50 was found to be 52.9 nM.

For `CCS(=O)(=O)Nc1ccc(OCc2ccnn2C)c(-c2cn(C)c(=O)c3[nH]ccc23)c1` [Example 142, N-{3-(6-methyl-7-oxo-6,7-dihydro-1H-pyrrolo[2,3-c]pyridin-4-yl)-4-[(1-methyl-1H-pyrazol-5-yl)methoxy]phenyl}ethanesulfonamide], the results for the Ki in data set [1] and in data set [3] were 6.5 nM and 79.4 nM, respectively. The half-life at 0.5 μM in data set [2] is 112 min; in data set [4], 32 min; in data set [5], 35 min. For the same molecule, the EC50 in data set [6] is 138 nM.

As to `CN(C)C(=O)Cc1ccc(OCc2ccccc2)c(-c2cn(C)c(=O)c3[nH]ccc23)c1` [Example 47, 2-[4-(benzyloxy)-3-(6-methyl-7-oxo-6,7-dihydro-1H-pyrrolo[2,3-c]pyridin-4-yl)phenyl]-N,N-dimethylacetamide], the Ki in data set [1] was determined as 235 nM; in data set [3], 205 nM. Besides, the half-life at 0.5 μM stood at 8 min in data set [2], 5 min in data set [4] and 3 min in data set [5]. For the same molecule, the EC50 in data set [6] worked out at 1100 nM.

On to `Cn1cc(-c2cc(S(=O)(=O)c3ccccc3)ccc2OCC2CC2)c2cc[nH]c2c1=O` [Example 285, 4-[2-(cyclopropylmethoxy)-5-(phenylsulfonyl)phenyl]-6-methyl-1,6-dihydro-7H-pyrrolo[2,3-c]pyridin-7-one], for which the Ki was 10.8 nM in data set [1] and 7.5 nM in data set [3]. The half-life at 0.5 μM was determined as 19 min in data set [2], 12 min in data set [4] and 10 min in data set [5]. Moreover, in data set [6], the EC50 came to 111 nM.

For the molecule `Cn1cc(-c2cc(N3CCCS3(=O)=O)ccc2Oc2ccc(F)cc2F)c2cc[nH]c2c1=O` [Example 43, 4-[2-(2,4-difluorophenoxy)-5-(1,1-dioxido-1,2-thiazolidin-2-yl)phenyl]-6-methyl-1,6-dihydro-7H-pyrrolo[2,3-c]pyridin-7-one], the Ki in data set [1] worked out at 1.7 nM; in data set [3], 1.2 nM. For the same molecule, the half-life at 0.5 μM in data set [2] worked out at 34.9 min; in data set [4], 5 min; in data set [5], 2 min. Moreover, the EC50 in data set [6] was 16.9 nM.

As to `CCS(=O)(=O)C(C)(C)c1ccc(Oc2ccc(F)cc2F)c(-c2cn(C)c(=O)c3[nH]ccc23)c1` [Example 298, 4-{2-(2,4-difluorophenoxy)-5-[2-(ethylsulfonyl)propan-2-yl]phenyl}-6-methyl-1,6-dihydro-7H-pyrrolo[2,3-c]pyridin-7-one], the inhibition constant (Ki) stood at 2.9 nM in data set [1] and 3.1 nM in data set [3]. The half-life at 0.5 μM came to 9 min in data set [2], 3 min in data set [4] and 47 min in data set [5]. For the same molecule, the EC50 in data set [6] turned out to be 6.1 nM.
